Earlier results on 1 compound are cited in patent US8071125B2, “Transdermal patch containing isosorbide dinitrate and bisoprolol” (Beijing Kangbeide Pharmaceutical Technology Development …, priority 2005, dated 2011).

The data set deals with Patients with Primary Hypertension. As to conditions: oral administration.

On to `CC(C)NCC(O)COc1ccc(COCCOC(C)C)cc1` (stereo not shown) [Bisoprolol], for which the “average reduction of the heart rate after the treatment” value is listed as 15.1%.
